Assay results taken from US20240358668A1, “METHODS AND CO[…] AM[…] CARD[…] USING (R)-2-AMINO-3-PH[…]” (AXSOME THERAPEUTICS, INC., priority 2021, published 2024).

System: participants with narcolepsy or OSA
Experiment: 1-year OLE study: blood pressure, parent study baseline to OLE week 40
Assay type: in vivo, human
Procedure: A 1-year open-label extension (OLE) study was performed with 374 participants to examined whether clinically significant weight loss (≥5%) in this population had favorable effects on biomarkers of cardiovascular risk compared to no such weight loss. The study measured changes in weight and BP (parent study baseline to OLE week 40) and clinical laboratory assessments (OLE baseline to week 40) in participants with narcolepsy (n=124) or OSA (n=250) who received solriamfetol at doses of 75, 150, or 300 mg/d.
We evaluated changes in weight and BP (parent study baseline to OLE week 40) and clinical laboratory assessments (OLE baseline to week 40) in participants with narcolepsy (n=124) or OSA (n=250) from the OLE study.

[1] = Weight loss <5% at Week 40, 75 mg/d
[2] = Weight loss <5% at Week 40, 150 mg/d
[3] = Weight loss <5% at Week 40, 300 mg/d
[4] = Weight loss <5% at Week 40, all doses
[5] = Weight loss <5% at Week 40, all doses, listed as Solri
[6] = Weight loss <5% at Week 40, all doses, listed as solriamfetol
[7] = Weight loss ≥5% at Week 40, 75 mg/d
[8] = Weight loss ≥5% at Week 40, 150 mg/d
[9] = Weight loss ≥5% at Week 40, 300 mg/d
[10] = Weight loss ≥5% at Week 40, all doses
[11] = Weight loss ≥5% at Week 40, all doses, listed as Solri
[12] = Weight loss ≥5% at Week 40, all doses, listed as solriamfetol

NC(=O)OC[C@H](N)Cc1ccccc1 [Solriamfetol, (R)-2-amino-3-phenylpropyl carbamate]
DBP Change - Wk 40, Mean (SD) [1]: 0.2 (9.5) mmHg
DBP Change - Wk 40, Median [1]: 0.0 mmHg
DBP maximum changes from baseline to week 40: Decrease ≥10% [1]: 3 (14.3) n (%)
DBP maximum changes from baseline to week 40: Decrease ≥20% [1]: 0 n (%)
DBP maximum changes from baseline to week 40: Decrease ≥30% [1]: 0 n (%)
DBP maximum changes from baseline to week 40: Increase ≥10% [1]: 4 (19.0) n (%)
DBP maximum changes from baseline to week 40: Increase ≥20% [1]: 0 n (%)
DBP maximum changes from baseline to week 40: Increase ≥30% [1]: 0 n (%)
SBP Change - Wk 40, Mean (SD) [1]: −3.0 (12.3) mmHg
SBP Change - Wk 40, Median [1]: 0.50 mmHg
SBP maximum changes from baseline to week 40: Decrease ≥10% [1]: 6 (28.6) n (%)
SBP maximum changes from baseline to week 40: Decrease ≥20% [1]: 0 n (%)
SBP maximum changes from baseline to week 40: Decrease ≥30% [1]: 0 n (%)
SBP maximum changes from baseline to week 40: Increase ≥10% [1]: 5 (23.8) n (%)
SBP maximum changes from baseline to week 40: Increase ≥20% [1]: 0 n (%)
SBP maximum changes from baseline to week 40: Increase ≥30% [1]: 0 n (%)
DBP Change - Wk 40, Mean (SD) [2]: 2.3 (7.9) mmHg
DBP Change - Wk 40, Median [2]: 2.3 mmHg
DBP maximum changes from baseline to week 40: Decrease ≥10% [2]: 4 (3.8) n (%)
DBP maximum changes from baseline to week 40: Decrease ≥20% [2]: 1 (1.0) n (%)
DBP maximum changes from baseline to week 40: Decrease ≥30% [2]: 0 n (%)
DBP maximum changes from baseline to week 40: Increase ≥10% [2]: 16 (15.2) n (%)
DBP maximum changes from baseline to week 40: Increase ≥20% [2]: 3 (2.9) n (%)
DBP maximum changes from baseline to week 40: Increase ≥30% [2]: 0 n (%)
SBP Change - Wk 40, Mean (SD) [2]: 2.30 (12.1) mmHg
SBP Change - Wk 40, Median [2]: 2.00 mmHg
SBP maximum changes from baseline to week 40: Decrease ≥10% [2]: 15 (14.3) n (%)
SBP maximum changes from baseline to week 40: Decrease ≥20% [2]: 4 (3.8) n (%)
SBP maximum changes from baseline to week 40: Decrease ≥30% [2]: 0 n (%)
SBP maximum changes from baseline to week 40: Increase ≥10% [2]: 26 (24.8) n (%)
SBP maximum changes from baseline to week 40: Increase ≥20% [2]: 7 (6.7) n (%)
SBP maximum changes from baseline to week 40: Increase ≥30% [2]: 2 (1.9) n (%)
DBP Change - Wk 40, Mean (SD) [3]: 0.6 (9.1) mmHg
DBP Change - Wk 40, Median [3]: 1.5 mmHg
DBP maximum changes from baseline to week 40: Decrease ≥10% [3]: 20 (13.2) n (%)
DBP maximum changes from baseline to week 40: Decrease ≥20% [3]: 5 (3.3) n (%)
DBP maximum changes from baseline to week 40: Decrease ≥30% [3]: 0 n (%)
DBP maximum changes from baseline to week 40: Increase ≥10% [3]: 21 (13.8) n (%)
DBP maximum changes from baseline to week 40: Increase ≥20% [3]: 2 (1.3) n (%)
DBP maximum changes from baseline to week 40: Increase ≥30% [3]: 0 n (%)
SBP Change - Wk 40, Mean (SD) [3]: −0.37 (12.7) mmHg
SBP Change - Wk 40, Median [3]: 0.17 mmHg
SBP maximum changes from baseline to week 40: Decrease ≥10% [3]: 36 (23.7) n (%)
SBP maximum changes from baseline to week 40: Decrease ≥20% [3]: 10 (6.6) n (%)
SBP maximum changes from baseline to week 40: Decrease ≥30% [3]: 2 (1.3) n (%)
SBP maximum changes from baseline to week 40: Increase ≥10% [3]: 33 (21.7) n (%)
SBP maximum changes from baseline to week 40: Increase ≥20% [3]: 8 (5.3) n (%)
SBP maximum changes from baseline to week 40: Increase ≥30% [3]: 0 n (%)
DBP Change - Wk 40, Median [4]: 1.4 mmHg
DBP maximum changes from baseline to week 40: Decrease ≥10% [4]: 27 (9.7) n (%)
DBP maximum changes from baseline to week 40: Decrease ≥20% [4]: 6 (2.2) n (%)
DBP maximum changes from baseline to week 40: Decrease ≥30% [4]: 0 n (%)
DBP maximum changes from baseline to week 40: Increase ≥10% [4]: 41 (14.7) n (%)
DBP maximum changes from baseline to week 40: Increase ≥20% [4]: 5 (1.8) n (%)
DBP maximum changes from baseline to week 40: Increase ≥30% [4]: 0 n (%)
SBP Change - Wk 40, Median [4]: 0.50 mmHg
SBP maximum changes from baseline to week 40: Decrease ≥10% [4]: 57 (20.5) n (%)
SBP maximum changes from baseline to week 40: Decrease ≥20% [4]: 14 (5.0) n (%)
SBP maximum changes from baseline to week 40: Decrease ≥30% [4]: 2 (0.7) n (%)
SBP maximum changes from baseline to week 40: Increase ≥10% [4]: 64 (23.0) n (%)
SBP maximum changes from baseline to week 40: Increase ≥20% [4]: 15 (5.4) n (%)
SBP maximum changes from baseline to week 40: Increase ≥30% [4]: 2 (0.7) n (%)
DBP Change - Wk 40, Mean (SD) [5]: 1.2 (8.7) mmHg
SBP Change - Wk 40, Mean (SD) [5]: 0.65 (12.5) mmHg
DBP Change - Wk 40, Mean (SD) [6]: 1.2±8.7 mmHg
SBP Change - Wk 40, Mean (SD) [6]: 0.65±12.5 mmHg
DBP Change - Wk 40, Mean (SD) [7]: −3.8 mmHg
DBP Change - Wk 40, Median [7]: −3.8 mmHg
DBP maximum changes from baseline to week 40: Decrease ≥10% [7]: 0 n (%)
DBP maximum changes from baseline to week 40: Decrease ≥20% [7]: 0 n (%)
DBP maximum changes from baseline to week 40: Decrease ≥30% [7]: 0 n (%)
DBP maximum changes from baseline to week 40: Increase ≥10% [7]: 0 n (%)
DBP maximum changes from baseline to week 40: Increase ≥20% [7]: 0 n (%)
DBP maximum changes from baseline to week 40: Increase ≥30% [7]: 0 n (%)
SBP Change - Wk 40, Mean (SD) [7]: −3.3 mmHg
SBP Change - Wk 40, Median [7]: −3.3 mmHg
SBP maximum changes from baseline to week 40: Decrease ≥10% [7]: 0 n (%)
SBP maximum changes from baseline to week 40: Decrease ≥20% [7]: 0 n (%)
SBP maximum changes from baseline to week 40: Decrease ≥30% [7]: 0 n (%)
SBP maximum changes from baseline to week 40: Increase ≥10% [7]: 0 n (%)
SBP maximum changes from baseline to week 40: Increase ≥20% [7]: 0 n (%)
SBP maximum changes from baseline to week 40: Increase ≥30% [7]: 0 n (%)
DBP Change - Wk 40, Mean (SD) [8]: −1.9 (9.9) mmHg
DBP Change - Wk 40, Median [8]: 0.5 mmHg
DBP maximum changes from baseline to week 40: Decrease ≥10% [8]: 5 (22.7) n (%)
DBP maximum changes from baseline to week 40: Decrease ≥20% [8]: 1 (4.5) n (%)
DBP maximum changes from baseline to week 40: Decrease ≥30% [8]: 0 n (%)
DBP maximum changes from baseline to week 40: Increase ≥10% [8]: 3 (13.6) n (%)
DBP maximum changes from baseline to week 40: Increase ≥20% [8]: 0 n (%)
DBP maximum changes from baseline to week 40: Increase ≥30% [8]: 0 n (%)
SBP Change - Wk 40, Mean (SD) [8]: −4.5 (13.8) mmHg
SBP Change - Wk 40, Median [8]: −2.8 mmHg
SBP maximum changes from baseline to week 40: Decrease ≥10% [8]: 7 (31.8) n (%)
SBP maximum changes from baseline to week 40: Decrease ≥20% [8]: 1 (4.5) n (%)
SBP maximum changes from baseline to week 40: Decrease ≥30% [8]: 1 (4.5) n (%)
SBP maximum changes from baseline to week 40: Increase ≥10% [8]: 3 (13.6) n (%)
SBP maximum changes from baseline to week 40: Increase ≥20% [8]: 1 (4.5) n (%)
SBP maximum changes from baseline to week 40: Increase ≥30% [8]: 0 n (%)
DBP Change - Wk 40, Mean (SD) [9]: −0.8 (8.9) mmHg
DBP Change - Wk 40, Median [9]: −0.3 mmHg
DBP maximum changes from baseline to week 40: Decrease ≥10% [9]: 11 (15.1) n (%)
DBP maximum changes from baseline to week 40: Decrease ≥20% [9]: 3 (4.1) n (%)
DBP maximum changes from baseline to week 40: Decrease ≥30% [9]: 0 n (%)
DBP maximum changes from baseline to week 40: Increase ≥10% [9]: 8 (11.0) n (%)
DBP maximum changes from baseline to week 40: Increase ≥20% [9]: 0 n (%)
DBP maximum changes from baseline to week 40: Increase ≥30% [9]: 0 n (%)
SBP Change - Wk 40, Mean (SD) [9]: −2.0 (10.8) mmHg
SBP Change - Wk 40, Median [9]: −1.8 mmHg
SBP maximum changes from baseline to week 40: Decrease ≥10% [9]: 20 (27.4) n (%)
SBP maximum changes from baseline to week 40: Decrease ≥20% [9]: 2 (2.7) n (%)
SBP maximum changes from baseline to week 40: Decrease ≥30% [9]: 0 n (%)
SBP maximum changes from baseline to week 40: Increase ≥10% [9]: 13 (17.8) n (%)
SBP maximum changes from baseline to week 40: Increase ≥20% [9]: 1 (1.4) n (%)
SBP maximum changes from baseline to week 40: Increase ≥30% [9]: 0 n (%)
DBP Change - Wk 40, Median [10]: −0.3 mmHg
DBP maximum changes from baseline to week 40: Decrease ≥10% [10]: 16 (16.7) n (%)
DBP maximum changes from baseline to week 40: Decrease ≥20% [10]: 4 (4.2) n (%)
DBP maximum changes from baseline to week 40: Decrease ≥30% [10]: 0 n (%)
DBP maximum changes from baseline to week 40: Increase ≥10% [10]: 11 (11.5) n (%)
DBP maximum changes from baseline to week 40: Increase ≥20% [10]: 0 n (%)
DBP maximum changes from baseline to week 40: Increase ≥30% [10]: 0 n (%)
SBP Change - Wk 40, Median [10]: −2.8 mmHg
SBP maximum changes from baseline to week 40: Decrease ≥10% [10]: 27 (28.1) n (%)
SBP maximum changes from baseline to week 40: Decrease ≥20% [10]: 3 (3.1) n (%)
SBP maximum changes from baseline to week 40: Decrease ≥30% [10]: 1 (1.0) n (%)
SBP maximum changes from baseline to week 40: Increase ≥10% [10]: 16 (16.7) n (%)
SBP maximum changes from baseline to week 40: Increase ≥20% [10]: 2 (2.1) n (%)
SBP maximum changes from baseline to week 40: Increase ≥30% [10]: 0 n (%)
DBP Change - Wk 40, Mean (SD) [11]: −1.0 (9.0) mmHg
SBP Change - Wk 40, Mean (SD) [11]: −2.6 (11.4) mmHg
DBP Change - Wk 40, Mean (SD) [12]: −1.0±9.0 mmHg
SBP Change - Wk 40, Mean (SD) [12]: −2.6±11.4 mmHg
